From ChEMBL document CHEMBL3259530, “Scaffold hopping approach to a new series of smoothened antagonists” (Bioorg Med Chem Lett, 2014)

Each molecule was assayed against Protein smoothened (Homo sapiens, UniProt Q99835) (assay: Inhibition of Smo receptor (unknown origin) expressed in NIH3T3 cells assessed as inhibition of Smo agonist SAG-induced GRE activation after 30 hrs by luciferase reporter gene assay).
Format: cell-based

Sequence of Protein smoothened (Q99835 whole entry): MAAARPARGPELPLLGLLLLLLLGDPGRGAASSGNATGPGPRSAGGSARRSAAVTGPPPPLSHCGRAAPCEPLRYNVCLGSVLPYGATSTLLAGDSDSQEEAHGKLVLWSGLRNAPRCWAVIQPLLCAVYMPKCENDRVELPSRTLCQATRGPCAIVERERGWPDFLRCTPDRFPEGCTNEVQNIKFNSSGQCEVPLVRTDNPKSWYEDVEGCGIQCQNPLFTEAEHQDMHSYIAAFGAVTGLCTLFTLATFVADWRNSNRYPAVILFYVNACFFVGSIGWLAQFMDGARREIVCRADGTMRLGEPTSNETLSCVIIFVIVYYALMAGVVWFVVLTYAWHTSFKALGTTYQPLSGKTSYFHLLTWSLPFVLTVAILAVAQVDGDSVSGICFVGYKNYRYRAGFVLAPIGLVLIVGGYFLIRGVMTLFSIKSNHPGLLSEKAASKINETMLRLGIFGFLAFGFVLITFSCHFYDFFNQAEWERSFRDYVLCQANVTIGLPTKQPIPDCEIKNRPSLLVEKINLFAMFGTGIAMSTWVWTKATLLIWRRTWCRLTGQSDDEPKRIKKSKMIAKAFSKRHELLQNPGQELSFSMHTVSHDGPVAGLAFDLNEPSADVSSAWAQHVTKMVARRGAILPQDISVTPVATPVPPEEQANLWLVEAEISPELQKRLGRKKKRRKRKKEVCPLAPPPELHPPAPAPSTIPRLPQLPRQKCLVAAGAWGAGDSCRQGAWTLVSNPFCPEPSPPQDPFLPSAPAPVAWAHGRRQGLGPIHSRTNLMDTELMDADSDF

Row | SMILES | IC50 [nM]
1 | CCNC(=O)c1cn2c(n1)CN(c1cc(-c3ncc(C)cc3C)c(Cl)cn1)CC2 | 1300
2 | CCOC(=O)c1cn2c(n1)CN(c1cc(-c3ncc(C)cc3C)c(Cl)cn1)CC2 | 690
3 | Cc1cnc(-c2cc(N3CCn4cc(C(=O)O)nc4C3)ncc2Cl)c(C)c1 | > 10000
4 | CNC(=O)c1cn2c(n1)CN(c1cc(-c3ncc(C)cc3C)c(Cl)cn1)CC2 | 2700
5 | Cc1cnc(-c2cc(N3CCn4cc(C(=O)NCC5CC5)nc4C3)ncc2Cl)c(C)c1 | 520
6 | Cc1cnc(-c2cc(N3CCn4cc(C(=O)N(C)CCO)nc4C3)ncc2Cl)c(C)c1 | 4100
7 | Cc1cnc(-c2cc(N3CCn4cc(C(=O)N5CCCC5)nc4C3)ncc2Cl)c(C)c1 | 270
8 | Cc1cnc(-c2cc(N3CCn4cc(C(=O)N5CCOCC5)nc4C3)ncc2Cl)c(C)c1 | 790
9 | Cc1cnc(-c2cc(N3CCn4cc(C(=O)N5CC(O)C5)nc4C3)ncc2Cl)c(C)c1 | > 10000
10 | Cc1cnc(-c2cc(N3CCn4cc(C(=O)N5CCC(O)C5)nc4C3)ncc2Cl)c(C)c1 (centres undefined) | > 10000
11 | COC[C@H]1CCCN1C(=O)c1cn2c(n1)CN(c1cc(-c3ncc(C)cc3C)c(Cl)cn1)CC2 | 550
12 | Cc1cnc(-c2cc(N3CCn4cc(C(=O)N5CCC(O)CC5)nc4C3)ncc2Cl)c(C)c1 | 1200
13 | Cc1cnc(-c2cc(N3CCn4cc(C(=O)N5CC(C)NC(C)C5)nc4C3)ncc2Cl)c(C)c1 (centres undefined) | 1500
14 | Cc1cnc(-c2cc(N3CCn4cc(C(=O)Nc5ccccc5)nc4C3)ncc2Cl)c(C)c1 | 300
15 | Cc1cnc(-c2cc(N3CCn4cc(C(=O)Nc5ccccc5F)nc4C3)ncc2Cl)c(C)c1 | 350
16 | Cc1cnc(-c2cc(N3CCn4cc(C(=O)Nc5cccc(F)c5)nc4C3)ncc2Cl)c(C)c1 | 87
17 | Cc1cnc(-c2cc(N3CCn4cc(C(=O)Nc5ccc(F)cc5)nc4C3)ncc2Cl)c(C)c1 | 440
18 | Cc1cnc(-c2cc(N3CCn4cc(C(=O)Nc5ccc(F)c(F)c5)nc4C3)ncc2Cl)c(C)c1 | 420
19 | Cc1cnc(-c2cc(N3CCn4cc(C(=O)Nc5ccccn5)nc4C3)ncc2Cl)c(C)c1 | 270
20 | Cc1cnc(-c2cc(N3CCn4cc(C(=O)Nc5cccnc5)nc4C3)ncc2Cl)c(C)c1 | 200
21 | Cc1cnc(-c2cc(N3CCn4cc(C(=O)OC(C)C)nc4C3)ncc2Cl)c(C)c1 | 380
22 | Cc1cnc(-c2cc(N3CCn4cc(C(=O)OCC5CC5)nc4C3)ncc2Cl)c(C)c1 | 270
23 | Cc1cnc(-c2cc(N3CCn4cc(C(=O)OC5CCCC5)nc4C3)ncc2Cl)c(C)c1 | 740
24 | Cc1cnc(-c2cc(N3CCn4cc(C(=O)Oc5ccccc5)nc4C3)ncc2Cl)c(C)c1 | 960
25 | Cc1cnc(-c2cc(N3CCn4cc(CO)nc4C3)ncc2Cl)c(C)c1 | 4100
26 | Cc1cnc(-c2cc(N3CCn4cc(CN5CCOCC5)nc4C3)ncc2Cl)c(C)c1 | 910
27 | Cc1cnc(-c2cc(N3CCn4cc(NC(=O)C(F)(F)F)nc4C3)ncc2Cl)c(C)c1 | 1800
28 | CCC(=O)Nc1cn2c(n1)CN(c1cc(-c3ncc(C)cc3C)c(Cl)cn1)CC2 | 890
29 | COCC(=O)Nc1cn2c(n1)CN(c1cc(-c3ncc(C)cc3C)c(Cl)cn1)CC2 | 650
